According to patent publication US12077531B2, “Imidazopyridinone compound” (KISSEI PHARMACEUTICAL CO., LTD., priority 2018, dated 2024):
Structures can show the parent of a compound that is named as a salt.

Biological target: human PHD2184-418 (Homo sapiens (Human), UniProt Q9GZT9)
Assay: PHD2 inhibitory test (fluorescence polarization, binding between PHD2 and HIF-1α)
Settings: human PHD2184-418, FITC-labeled HIF-1α556-574, 2 μM 2-oxoglutarate, 37° C. 60 minutes
Procedure: Test Example 1 PHD2 Inhibitory Test
(1) Expression and Preparation of Human PHD2184-418
Human PHD2184-418 containing amino acid residues 184 to 418 of the protein represented by CAC42509 (GenBank accession ID) was expressed and prepared by the following method.
An expression construct of human PHD2184-418 containing N-terminal histidine tag was introduced into pET-30a (+) vector, and the sequence was confirmed. This vector was introduced into BL21 (DE3) strain and cultured at 37° C. in LB medium containing antibiotics. After culturing, a cell lysis solution was added to the cells, and then the cells were disrupted by sonication. The disrupted suspension was centrifuged and the supernatant was purified by Ni column to give human PHD2184-418.
Human HIF-1α556-574 (FITC-labeled HIF-1α556-574), containing N-terminal FITC-Ahx, containing amino acid residues 556 to 574 (partial peptide) of HIF-1α was used as a substrate. Using FITC-labeled HIF-1α556-574, the competitive inhibition between 2-oxoglutarate and test compounds (PHD inhibitor) was evaluated based on the change in fluorescence polarization by the following method.
An enzyme (human PHD2184-418) and the substrate were diluted with an assay buffer (pH 7.4) containing 10 mM HEPES, 150 mM NaCl, 10 μM MnCl2-4H2O, 2 μM 2-oxoglutarate and 0.05% Tween-20. Test compounds were diluted with DMSO. Test compounds and human PHD2184-418 was added to the 384-well plate (Corning, black, opaque bottom) in advance. The reaction was started by the addition of FITC-labeled HIF-1α556-574. After incubating at 37° C. for 60 minutes, fluorescence polarization (excitation wavelength: 470 nm, fluorescence wavelength: 530 nm) was measured by PHERAstar FSX (BMG Labtech). Fluorescence polarization of each well was measured, and human PHD2 binding inhibitory activity of test compounds was calculated based on the value of test compound-free group.

Chain of human PHD2184-418 (Q9GZT9 184-418): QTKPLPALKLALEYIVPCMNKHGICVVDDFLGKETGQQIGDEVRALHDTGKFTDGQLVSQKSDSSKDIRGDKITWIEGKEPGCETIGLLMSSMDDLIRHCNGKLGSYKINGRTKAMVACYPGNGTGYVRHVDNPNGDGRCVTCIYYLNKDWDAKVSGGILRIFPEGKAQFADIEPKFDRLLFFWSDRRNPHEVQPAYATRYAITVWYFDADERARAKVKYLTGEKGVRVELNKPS

Compound	IC50
Cc1cccnc1CN1CC[C@H](n2c(=O)n(-c3ccc(-c4ccc(C#N)cc4)cc3)c3cccnc32)C1 [Example 34, (S)-4′-(3-(1-((3-Methylpyridin-2-yl)methyl)pyrrolidin-3-yl)-2-oxo-2,3-dihydro-1H-imidazo[4,5-b]pyridin-1-yl)-[1,1′-biphenyl]-4-carbonitrile]	5700 nM
Cc1cccnc1CN1CC[C@H](n2c(=O)n(-c3ccc(-c4ccc(OC(F)(F)F)cc4)cc3)c3cccnc32)C1 [Example 35, (S)-3-(1-((3-Methylpyridin-2-yl)methyl)pyrrolidin-3-yl)-1-(4′-(trifluoromethoxy)-[1,1′-biphenyl]-4-yl)-1,3-dihydro-2H-imidazo[4,5-b]pyridin-2-one]	80500 nM
Cn1ccnc1CN1CC[C@H](n2c(=O)n(-c3ccc(-c4ccncc4)cc3)c3cccnc32)C1 [Example 36, (S)-3-(1-((1-Methyl-1H-imidazol-2-yl)methyl)pyrrolidin-3-yl)-1-(4-(pyridin-4-yl)phenyl)-1,3-dihydro-2H-imidazo[4,5-b]pyridin-2-one hydrochloride]	1510 nM
COC(=O)c1ccc(-c2ccc(-n3c(=O)n([C@H]4CCN(Cc5nccn5C)C4)c4ncccc43)cc2)cc1 [Example 37, Methyl (S)-4′-(3-(1-((1-methyl-1H-imidazol-2-yl)methyl)pyrrolidin-3-yl)-2-oxo-2,3-dihydro-1H-imidazo[4,5-b]pyridin-1-yl)-[1,1′-biphenyl]-4-carboxylate]	6280 nM
COC(=O)c1ccc(-c2ccc(-n3c(=O)n([C@@H]4CCN(Cc5nccn5C)C4)c4ncccc43)c(C)c2)cc1 [Example 38, Methyl (R)-3′-methyl-4′-(3-(1-((1-methyl-1H-imidazol-2-yl)methyl)pyrrolidin-3-yl)-2-oxo-2,3-dihydro-1H-imidazo[4,5-b]pyridin-1-yl)-[1,1′-biphenyl]-4-carboxylate]	4630 nM
Cn1ccnc1CN1CC[C@H](n2c(=O)n(-c3ccc(-c4ccc(C(=O)O)cc4O)cc3)c3cccnc32)C1 [Example 44, (S)-2-Hydroxy-4′-(3-(1-((1-methyl-1H-imidazol-2-yl)methyl)pyrrolidin-3-yl)-2-oxo-2,3-dihydro-1H-imidazo[4,5-b]pyridin-1-yl)-[1,1′-biphenyl]-4-carboxylic acid]	970 nM
Cn1c(C(=O)O)cnc1CN1CC[C@H](n2c(=O)n(-c3cccc(-c4ccccc4)c3)c3cccnc32)C1 [Example 54, (S)-2-((3-(1-([1,1′-Biphenyl]-3-yl)-2-oxo-1,2-dihydro-3H-imidazo[4,5-b]pyridin-3-yl)pyrrolidin-1-yl)methyl)-1-methyl-1H-imidazole-5-carboxylic acid]	770 nM
CN(C)c1ccc(-n2c(=O)n([C@H]3CCN(Cc4ncc(C(=O)O)n4C)C3)c3ncccc32)cc1 [Example 55, (S)-2-((3-(1-(4-(Dimethylamino)phenyl)-2-oxo-1,2-dihydro-3H-imidazo[4,5-b]pyridin-3-yl)pyrrolidin-1-yl)methyl)-1-methyl-1H-imidazole-5-carboxylic acid]	490 nM
Cn1c(C(=O)O)cnc1CN1CC[C@H](n2c(=O)n(-c3ccc(Oc4ccccc4)cc3)c3cccnc32)C1 [Example 56, (S)-1-Methyl-2-((3-(2-oxo-1-(4-phenoxyphenyl)-1,2-dihydro-3H-imidazo[4,5-b]pyridin-3-yl)pyrrolidin-1-yl)methyl)-1H-imidazole-5-carboxylic acid]	410 nM
Cn1c(C(=O)O)cnc1CN1CC[C@H](n2c(=O)n(-c3ccc(Cc4ccccc4)cc3)c3cccnc32)C1 [Example 57, (S)-2-((3-(1-(4-Benzylphenyl)-2-oxo-1,2-dihydro-3H-imidazo[4,5-b]pyridin-3-yl)pyrrolidin-1-yl)methyl)-1-methyl-1H-imidazole-5-carboxylic acid]	710 nM
Cc1ccc(-n2c(=O)n([C@H]3CCN(Cc4ncc(C(=O)O)n4C)C3)c3ncccc32)cc1 [Example 58, (S)-1-Methyl-2-((3-(2-oxo-1-(p-tolyl)-1,2-dihydro-3H-imidazo[4,5-b]pyridin-3-yl)pyrrolidin-1-yl)methyl)-1H-imidazole-5-carboxylic acid]	1020 nM
CSc1ccc(-n2c(=O)n([C@H]3CCN(Cc4ncc(C(=O)O)n4C)C3)c3ncccc32)cc1 [Example 60, (S)-1-Methyl-2-((3-(1-(4-(methylthio)phenyl)-2-oxo-1,2-dihydro-3H-imidazo[4,5-b]pyridin-3-yl)pyrrolidin-1-yl)methyl)-1H-imidazole-5-carboxylic acid]	590 nM

The next compounds have a lower IC50 than those just listed; values first:

IC50	Compound
350 nM	Cc1cc(-c2ccc(C(=O)O)cc2)ccc1-n1c(=O)n([C@@H]2CCN(Cc3nccn3C)C2)c2ncccc21 [Example 48, (R)-3′-Methyl-4′-(3-(1-((1-methyl-1H-imidazol-2-yl)methyl)pyrrolidin-3-yl)-2-oxo-2,3-dihydro-1H-imidazo[4,5-b]pyridin-1-yl)-[1,1′-biphenyl]-4-carboxylic acid]
320 nM	Cn1ccnc1CN1CC[C@H](n2c(=O)n(-c3ccc(-c4ccc(O)c(C(=O)O)c4)cc3)c3cccnc32)C1 [Example 42, (S)-4-Hydroxy-4′-(3-(1-((1-methyl-1H-imidazol-2-yl)methyl)pyrrolidin-3-yl)-2-oxo-2,3-dihydro-1H-imidazo[4,5-b]pyridin-1-yl)-[1,1′-biphenyl]-3-carboxylic acid]
280 nM	O=C(O)c1ccnc(CN2CC[C@H](n3c(=O)n(-c4ccc(-c5ccc(O)c(C(=O)O)c5)nc4)c4cccnc43)C2)c1 [Example 52, (S)-2-((3-(1-(6-(3-Carboxy-4-hydroxyphenyl)pyridin-3-yl)-2-oxo-1,2-dihydro-3H-imidazo[4,5-b]pyridin-3-yl)pyrrolidin-1-yl)methyl)isonicotinic acid]
180 nM	Cn1c(C(=O)O)cnc1CN1CC[C@H](n2c(=O)n(-c3ccc(Cl)cc3)c3cccnc32)C1 [Example 59, (S)-2-((3-(1-(4-Chlorophenyl)-2-oxo-1,2-dihydro-3H-imidazo[4,5-b]pyridin-3-yl)pyrrolidin-1-yl)methyl)-1-methyl-1H-imidazole-5-carboxylic acid]
140 nM	Cc1cc(C(=O)O)ccc1-c1ccc(-n2c(=O)n([C@H]3CCN(Cc4ncc(C(=O)O)n4C)C3)c3ncccc32)cn1 [Example 50, (S)-2-((3-(1-(6-(4-Carboxy-2-methylphenyl)pyridin-3-yl)-2-oxo-1,2-dihydro-3H-imidazo[4,5-b]pyridin-3-yl)pyrrolidin-1-yl)methyl)-1-methyl-1H-imidazole-5-carboxylic acid]
140 nM	O=C(O)c1ccnc(CN2CC[C@H](n3c(=O)n(-c4ccc(-c5ccc(O)c(C(=O)O)c5)c(O)c4)c4cccnc43)C2)c1 [Example 51, (S)-2-((3-(1-(3′-Carboxy-2,4′-dihydroxy-[1,1′-biphenyl]-4-yl)-2-oxo-1,2-dihydro-3H-imidazo[4,5-b]pyridin-3-yl)pyrrolidin-1-yl)methyl)isonicotinic acid]
140 nM	O=C(O)c1ccnc(CN2CC[C@H](n3c(=O)n(-c4ccc(-c5ccc(O)c(C(=O)O)c5)cc4O)c4cccnc43)C2)c1 [Example 53, (S)-2-((3-(1-(3′-Carboxy-3,4′-dihydroxy-[1,1′-biphenyl]-4-yl)-2-oxo-1,2-dihydro-3H-imidazo[4,5-b]pyridin-3-yl)pyrrolidin-1-yl)methyl)isonicotinic acid]
